Test results published in ChEMBL document CHEMBL1154221, “Farinomalein, a maleimide-bearing compound from the entomopathogenic fungus Paecilomyces farinosus” (2009).

Tested on: Phytophthora sojae
Assay: Antioomycete activity against Phytophthora sojae P6497 after 48 to 96 hrs by disc diffusion method
Format: functional

Structure (SMILES)	MIC [µg]
C[C@@H]1[C@H](O)[C@@H](C)/C=C/C=C/C=C/C=C/C=C/C=C/C=C/[C@H](O[C@@H]2O[C@H](C)[C@@H](O)[C@H](N)[C@@H]2O)C[C@@H]2O[C@](O)(C[C@@H](O)C[C@@H](O)[C@H](O)CC[C@@H](O)C[C@@H](O)CC(=O)O[C@H]1C)C[C@H](O)[C@H]2C(=O)O [AMPHOTERICIN B]	10
CC(C)C1=CC(=O)N(CCC(=O)O)C1=O [FARINOMALEIN]	5
